Laboratory results published in patent publication US20250206756A1, “INHIBITORS” (Pfizer Inc., priority 2023, published 2025).

test system: SZ95 human sebocytes; assay: High content imaging assay to quantify lipid droplets in a human sebocyte cell line; type: cell-based; conditions: 48 hours incubation, Bodipy neutral lipid staining, read-out: Human SZ95 Sebocyte Lipid Imaging Assay / Percent Inhibition of Lipid Droplets IC50
Experimental: High content imaging assay to quantify lipid droplets in a human sebocyte cell line One week prior to cell dosing, SZ95 human sebocytes were thawed and grown in a T175 tissue culture flask containing 50 mL media. Media was prepared as follows: Sebomed basal medium with stable glutamine and without phenol red (Sigma; Catalog No. F8205), 10% heat inactivated fetal bovine serum (Invitrogen; Cat. No. 10082), 5 ng/mL recombinant human epidermal growth factor (Gibco; Catalog No. PHG0311), 1 mM calcium chloride (Fisher Scientific; Catalog No. BP9742), and 1X penicillin/streptomycin (Thermo Fisher; Catalog No. 15140-122). Cells were cultured at 37° C. and the media was replaced every 48-72 hours until start of assay. Compounds were delivered as a 75 nL spot by the Echo 550 (Labcyte) into 384-well assay plates (PerkinElmer; Catalog No. 6057308) with final compound concentrations of […], 0.003, 0.001, 0.0003, and 0.0001 μM. The final DMSO concentration was 0.1%. SZ-95 cells were washed with Dulbecco's phosphate buffered saline (DPBS, Lonza; Catalog No. 17-512Q) and then detached with 0.25% Trypsin-EDTA (Gibco; Catalog No. 25200056). Growth media (25 mL) was added to the flask and the cells were further diluted to 1.33×10∧5 cells/mL. SZ-95 cells were plated at a density of 10,000 cells/well in 75 μL and incubated for 48 hours at 37° C. Using the Biomek FX (Beckman), 25 μL of media was removed and the cells were fixed by adding 18.7 μL of 16% paraformaldehyde (Electron Microscopy Sciences; Cat. No. 50980488). After a 30 minute incubation at room temperature, the plates were washed twice with 75pi DPBS. Following the second wash, all remaining DPBS was removed. Staining solution was prepared with 2 μM Bodipy (Invitrogen; Cat. No D3922, diluted 1:1000) and Hoechst (Life Technologies; Cat. No. H3570, diluted 1:2000) in DPBS. Using the Biomek FX, 30 μL of the staining solution was added to each well. The cells were incubated for 20 minutes at room temperature, then washed once with 75 μL DPBS. Finally, 30 μL of DPBS was added to each well and the plates were sealed with light blocking film. The plates were read on an Opera Phenix (PerkinElmer) for high content imaging. Nuclei were detected by Hoechst staining and lipid droplets by Bodipy, which stains neutral lipids. […] The percent (%) effect at each concentration of compound is calculated by Genedata Screener analysis program using a four-parameter logistic dose response equation and is based on and relative to the amount of lipid droplets in the positive and negative control wells contained within each assay plate to determine the 50% inhibition concentration (IC50).

First: CCOc1cc(C(=O)N2CCC3(CC2)Cc2sc(C(C)(C)C)nc2C(O)C3)cc2c(C)nn(C)c12 (racemic) [Example 4, rac-(R)-(2-(tert-butyl)-4-hydroxy-4,7-dihydro-5H-spiro[benzo[d]thiazole-6,4′-piperidin]-1′-yl)(7-ethoxy-1,3-dimethyl-1H-indazol-5-yl)methanone]
Second: CCOc1cc(C(=O)N2CCC3(CC2)Cc2sc(C(C)(C)C)nc2[C@H](O)C3)cc2c(C)nn(C)c12 [Example 4a, (R)-(2-(tert-butyl)-4-hydroxy-4,7-dihydro-5H-spiro[benzo[d]thiazole-6,4′-piperidin]-1′-yl)(7-ethoxy-1,3-dimethyl-1H-indazol-5-yl)methanone]
The IC50 of the first is 6.1-fold lower: 20 nM for the first, 122 nM for the second.

Compared with `CCOc1cc(C(=O)N2CCC3(CC2)CC(=O)c2nc(C(C)(C)C)sc2C3)cc2c(C)n[nH]c12` [Example 1, 2-(tert-butyl)-1′-(7-ethoxy-3-methyl-1H-Indazole-5-carbonyl)-5H-spiro[benzo[d]thiazole-6,4′-piperidin]-4(7H)-one], `CCOc1cc(C(=O)N2CCC3(CC2)CC(=O)c2nc(C(C)(C)CO)sc2C3)cc2c(C)nn(C)c12` [Example 3, 1′-(7-ethoxy-1,3-dimethyl-1H-Indazole-5-carbonyl)-2-(1-hydroxy-2-methylpropan-2-yl)-5H-spiro[benzo[d]thiazole-6,4′-piperidin]-4(7H)-one] is 1.6-fold higher in IC50: 10 nM for the first, 16 nM for the second.

`Cc1nn(C)c2c(O)cc(C(=O)N3CCC4(CC3)CC(=O)c3nc(C(C)(C)C)sc3C4)cc12` [Example 2] and `Cc1nn(C)c2c(O)cc(C(=O)N3CCC4(CC3)CC(=O)c3nc(C(C)(C)CO)sc3C4)cc12` [Example 8] cannot be ordered by IC50: 11 nM for the first, > 0.145 nM for the second.

`CCOc1cc(C(=O)N2CCC3(CC2)Cc2sc(C(C)(C)C)nc2[C@@H](O)C3)cc2c(C)nn(C)c12` [Example 4b] was tested, and the IC50 was 7 nM.
